Consider five molecules from US9932339B2, “Helquats with heteroaromatic substituents, preparation thereof, and use thereof as G-quadruplex stabilizers” (USTAV ORGANICKE CHEMIE A BIOCHEMIE AV CR, V.V.I., priority 2014, dated 2018).

Where two headings read alike, the source gives them in different places.

One experiment deals with CCRF-CEM. In words: XTT cytotoxicity/proliferation assay, CCRF-CEM. The format is cell-based. To be noted: Homo sapiens, CCRF-CEM. The gist of the method: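 CCRF-CEM cells plated at 3000 per well, treated next day for 72 h with helquats over 1-100 μmol·l^−1. Viability by XTT reduction (2 h), absorbance 492 nm with 690 nm reference; IC50 from triplicates, repeated in at least three independent experiments, values above 100 μmol·l^−1 extrapolated.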
(In general: Tetrazolium assays rely on reduction of a dye to a coloured formazan, in cell work by metabolically active cells.)

Experiment [1] concerns G-quadruplex oligonucleotide Fmyc27T (NHE III1 promoter region of c-myc oncogene). In words: FRET melting of G-quadruplex oligonucleotide Fmyc27T with ligands. The format is binding. The settings on record: for ΔTm (° C.) Fmyc27T/ds26 (° C.): helquat 1 μmol·l^−1, oligonucleotide 0.2 μmol·l^−1, 50-fold excess of double-stranded competitor ds26; for ΔTm (° C.) Fmyc27T: helquat 1 μmol·l^−1, oligonucleotide 0.2 μmol·l^−1, without competitor. The text has this: To determine the degree of in vitro interactions of helquats with G-quadruplex(es), the oligonucleotides containing the guanine-rich sequences of human telomere (F21T) and NHE III1 promoter region of c-myc oncogene (Fmyc27T) were used. Both oligonucleotides capable of forming an intramolecular G-quadruplex were end-labeled with suitable fluorophores so as to form donor-acceptor FRET pair (5′-FAM and 3′-TAMRA). If the oligonucleotide is folded into the structure of the G-quadruplex, donor is in close proximity of acceptor and radiationless energy transfer to the acceptor occurs. With increasing temperature of the reaction mixture G-quadruplex structure gradually denatures and thus the donor and acceptor (FAM-TAMRA) drift apart. This leads to an increase in fluorescence of donor (FAM) and a decrease in fluorescence of acceptor (TAMRA).
The result of measurement is the curve of dependence of the intensity of fluorescence of the donor on the temperature. If the G-quadruplex is stabilized by ligand, melting temperature will increase. Melting temperature of G-quadruplex corresponds to the temperature when 50% of the original amount of the folded G-quadruplex is denatured. The measurement outcome is the difference in the melting temperatures (ΔTm) of the G-quadruplex alone and the G-quadruplex stabilized by ligand. In case of Fmyc27T experiments were performed in cacodylate buffer (10 mmol·l^−1, pH=7.2) with KCl (5 mmol·l^−1) and LiCl (95 mmol·l^−1) oligonucleotide and in case of F21T oligonucleotide in cacodylate buffer (10 mmol·l^−1, pH=7.2) with KCl (25 mmol·l^−1) and LiCl (75 mmol·l^−1).
Both oligonucleotides were denatured for 5 minutes at 95° C. and subsequently allowed to cool to room temperature (3 hours) in the switched-off thermoblock. The final oligonucleotide concentration in the reaction mixture was 0.2 μmol·l^−1. Test helquats were present at concentrations of 1 μmol·l^−1. The total reaction volume was 30 μl. The melting temperature of the oligonucleotides alone (without the presence of helquats) under these conditions was 58.1±0.2° C. for F21T and 64.7±0.4° C. for Fmyc27T. For determining the selectivity of binding of helquats to G-quadruplex in comparison with the double-stranded DNA, 50-fold excess of double-stranded DNA ([…] unlabeled competitor ds26 forming a hairpin) is added to the reaction mixture. After the addition to the reaction mixture ds26 competes with labeled oligonucleotide (Fmyc27T or F21T) for ligand binding. […] Melting temperature of oligonucleotides alone in the presence of the competitor is 59.4±0.5° C. for F21T and 66.3° C.±0.6° C. for Fmyc27T.
Fluorescence of FAM donor was measured using real-time PCR apparatus Opticon 2 (excitation 470-505 nm and emission 523-543 nm) in temperature increments of 0.5° C. in the range 25 to 95° C. Evaluation of the sigmoid curves of fluorescence intensity dependent on the temperature were performed in GraphPad Prism 5 (GraphPad Software, Inc., USA). Using nonlinear five parametric regression the inflection point on the curve was calculated that corresponds to the melting temperature (Tm) of the G-quadruplex under the given conditions. The values were obtained from at least three independent measurements.

The mark [2] stands for this setting: 72 hours of treatment, read-out: IC50 CCRF CEM.
Setting [3] is: 72 hours, summary of table 9, read-out: concentrations toxic towards CCRF-CEM cells.

On to `O=[N+]([O-])c1cccc2[nH]cc(/C=C/c3cc[n+]4c(c3)-c3c(ccc5c3-c3cccc[n+]3CC5)CC4)c12` (racemic) [LSA-C9-32, (rac)-(E)-2-(2-(4-nitro-1H-indol-3-yl)vinyl)-6,7,10,11-tetrahydrodipyrido[2,1-a:1′,2′-k][2,9]phenanthroline-5,12-diium trifluoromethanesulfonate], for which the IC50 was 11 to 25 µM in the experiment on CCRF-CEM (setting [2]) and below 25 µM with CCRF-CEM (setting [3]). For the same molecule, the “ΔTm (° C.) Fmyc27T/ds26 (° C.)” value in experiment [1] amounted to 8.1 °C. In experiment [1], the “ΔTm (° C.) Fmyc27T” value stood at 10.4 °C.

For `Cc1c(C)c2c(c3c1CC[n+]1ccc(/C=C/c4cccc5c4oc4ccccc45)cc1-3)-c1c3ccccc3cc[n+]1CC2` (racemic) [MJA-C13-8, (rac)-(E)-13-(2-(dibenzo[b,d]furan-4-yl)vinyl)-6,7-dimethyl-4,5,8,9-tetrahydroisoquinolino[1,2-a]pyrido[1,2-k][2,9]phenanthroline-3,10-diium trifluoromethanesulfonate], the IC50 with CCRF-CEM (setting [2]) was in the range of 26 to 50 µM. For the same molecule, in experiment [1], the “ΔTm (° C.) Fmyc27T/ds26 (° C.)” value was 4.9 °C and the “ΔTm (° C.) Fmyc27T” value stood at 11.0 °C.

Regarding `C(=C\c1cccc2c1oc1ccccc12)/c1cc[n+]2c(c1)-c1c(ccc3c1-c1c4ccccc4cc[n+]1CC3)CC2.O=S(=O)([O-])C(F)(F)F.O=S(=O)([O-])C(F)(F)F` [MSB-C13-8, (E)-13-(2-(dibenzo[b,d]furan-4-yl)vinyl)-4,5,8,9-tetrahydroisoquinolino[1,2-a]pyrido[1,2-k][2,9]phenanthroline-3,10-diium trifluoromethanesulfonate], the IC50 with CCRF-CEM (setting [2]) fell in the range of 26 to 50 µM. Moreover, in experiment [1], the “ΔTm (° C.) Fmyc27T/ds26 (° C.)” value was 7.7 °C and the “ΔTm (° C.) Fmyc27T” value was found to be 12.6 °C.

`Brc1ccc2[nH]cc(/C=C/c3cc4ccccc4[n+]4c3-c3c(ccc5c3-c3cccc[n+]3CCC5)CCC4)c2c1.O=S(=O)([O-])C(F)(F)F.O=S(=O)([O-])C(F)(F)F` [MSC-C9-30, 19-((E)-2-(5-bromo-1H-indol-3-yl)vinyl)-6,7,8,11,12,13-hexahydropyrido[1′″,2′″:1″,2″]azepino[4″,3″:5′,6′]benzo[1′,2′:3,4]azepino[1,2-a]quinoline-5,14-diium trifluoromethanesulfonate]: the figures for the IC50 with CCRF-CEM (setting [2]) and in the experiment with CCRF-CEM (setting [3]) were at most 10 µM and below 25 µM, respectively.

Turning to `C(=C\c1c(-c2ccccc2)[nH]c2ccccc12)/c1cc2ccccc2[n+]2c1-c1c(ccc3c1-c1cccc[n+]1CCC3)CCC2.O=S(=O)([O-])C(F)(F)F.O=S(=O)([O-])C(F)(F)F` [MSC-C15-8, 19-((E)-2-(2-phenyl-1H-indol-3-yl)vinyl)-6,7,8,11,12,13-hexahydropyrido[1′″,2′″:1″,2″]azepino[4″,3″:5′,6′]benzo[1′,2′:3,4]azepino[1,2-a]quinoline-5,14-diium trifluoromethanesulfonate], in the experiment on CCRF-CEM (setting [2]), the IC50 was 11 to 25 µM.
